{
  "source": "paper PMC9031226",
  "about": "“Preclinical Therapeutic Assessment of a New Chemotherapeutics [Dichloro(4,4’-Bis(2,2,3,3-Tetrafluoropropoxy) Methyl)-2,2’-Bipryridine) Platinum] in an Orthotopic Patient-Derived Xenograft Model of Triple-Negative Breast Cancers” (Pharmaceutics, 2022)",
  "key": {"[1]": {"tested_on": "MDA-MB-231 cells", "assay": "Reactive oxygen species detection (DCF-DA, flow cytometry)", "type": "cell-based, human", "conditions": "MDA-MB-231, 8 h", "description": "DCF-DA is highly fluorescent and can label ROS for quantitative assessment using flow cytometer with excitation/emission at 485 nm/535 nm. To harvest and collect adherent and suspended cells, we first collected suspended cells from supernatant by centrifuging at 3000 rpm for 5 min at 4 °C and then adding trypsin to detach these adherent cells in the 6-well plate, followed by removing suspended cells via centrifugation. Both cell pellets after centrifugation were collected and re-suspended in PBS for subsequent quantitative analysis of ROS productions from cells treated either with CDDP or TFBPC using flow cytometer by gating the positive area in the histogram."}, "[2]": {"tested_on": "HCT-15", "assay": "MTT cell viability assay on HCT-15 (supplement)", "type": "cell-based", "conditions": "20 to 80 μM, 24 or 48 h, supplementary figure", "description": "Figure S11. TFBPC and glycyrrhizic acid micelles (GAM)-encapsulated TFBPC […]\nNSG mice (N = 16) with implantation of MDA-MB-231 cells on the left flank were intraperitoneally administrated with PBS (5 mL/kg), TFBPC (5 mg/kg) or glycyrrhizic acid micelles (GAM)-encapsulated TFBPC (5 mg/kg) once per week and four times total in the whole course of treatment. Tumor volume of each animal was measured by caliper for monitoring its tumor growth and then sacrificed 49 days after the first dose of treatment. Mean ± SD. **** p < 0.0001. […]\ncolorectal cancers. Cisplatin and three platinum-based analogues, including (4, 4-3F) PtCl2 (A), TFBPC (B) and (4, 4-5F) PtCl2 (C), were assessed for cell viability using MTT assay. MDA-MB-231 breast cancers cells (D), COLO205 (E) and HCT-15 (F) colorectal cancer cells were given various concentrations of cisplatin or analogues ranging from 20 to 80 μM for 24 or 48 h. Results were shown in mean ± SD and statistically analyzed by one-way ANOVA and Tukey’s post hoc test. * p < 0.05, ** p < 0.01, *** p < 0.001, **** p < 0.0001. […]"}},
  "data": [
    {"smiles": "FC(F)C(F)(F)COCc1ccnc(-c2cc(COCC(F)(F)C(F)F)ccn2)c1.[Cl][Pt][Cl]", "note": "[TFBPC]", "values": [
      {"measurement": "ROS production", "setting": "[1]", "result": "apparent increase in ROS production"},
      {"measurement": "cell viability of HCT-15 cells", "setting": "[2]", "result": "statistically reduced cell viability"}
    ]}
  ]
}
